The values below come from article PMC6172212, “Structural Analysis of Inhibitor Binding to CAMKK1 Identifies Features Necessary for Design of Specific Inhibitors” (Scientific Reports, 2018).

Structures can show the parent of a compound that is named as a salt. Where two headings read alike, the source gives them in different places.

For this assay, the target named is T1, CAMKK1 kinase domain (CAMKK1-KD, Gln124-Lys411) (Homo sapiens, UniProt Q8N5S9).
T1 construct: The kinase domain (Gln124 to Lys411) was amplified using the primers; 6xHis (TEV-cleavable) (N, cleaved yes); made in house; host or cells: Escherichia coli BL21(DE3)-R3 co-expressing λ-phosphatase
Briefly: Differential scanning fluorimetry (DSF) screen of a kinase inhibitor library against CAMKK1-KD. In kind it is binding. On the procedure:
DSF measurements were made in a 384-well plate.
The compounds, previously solubilized in DMSO, were used at 10 µM final concentration and 0.1% DMSO. Plates were sealed using optically clear films and transferred to a QuantStudio 6 qPCR instrument (Applied Biosystems). […] Protein in 0.1% DMSO was used as a reference.

[1] abbreviates: DSF, 1 μM CAMKK1-KD, compound 10 µM, supplement.
The mark [2] stands for this setting: DSF, 1 μM CAMKK1-KD, compound 10 µM, supplement, read-out: Mean ΔTm (°C).

T1 sequence (Q8N5S9 124-411): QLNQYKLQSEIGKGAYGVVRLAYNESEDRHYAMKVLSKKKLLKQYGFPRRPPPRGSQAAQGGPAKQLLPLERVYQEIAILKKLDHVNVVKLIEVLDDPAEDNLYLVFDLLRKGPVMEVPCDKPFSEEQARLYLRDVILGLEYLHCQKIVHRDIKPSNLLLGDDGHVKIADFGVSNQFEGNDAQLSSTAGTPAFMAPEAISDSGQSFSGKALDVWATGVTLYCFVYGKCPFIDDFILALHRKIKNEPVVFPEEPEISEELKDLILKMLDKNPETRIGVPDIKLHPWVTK

Turning to `Cc1[nH]nc2ccc(-c3cncc(OC[C@@H](N)Cc4ccccc4)c3)cc12` [A-674563], the “Mean ΔTm (°C)” value under setting [1] was found to be 5.7 °C.
The same measure, in the same setting: for `COc1ccc2c(Oc3ccc(NC(=O)c4c(C)n(CC(C)(C)O)n(-c5ccccc5)c4=O)nc3)ccnc2c1` [AMG-458] the value was 5.2 °C.
On the same count and under the same terms, for `O=C1NC(=O)/C(=C/c2ccc(-c3ccc(F)cc3O)o2)S1` [AS-252424] the value was 4.8 °C.
Take `O=C(Nc1c[nH]nc1-c1nc2ccc(CN3CCOCC3)cc2[nH]1)NC1CC1` [AT9283]: under setting [2], the ΔTm – broadly, the shift of the melting midpoint relative to a reference – at 10 µM is 5.6 °C.
On the same count and under the same terms, for `Cc1cc(Nc2nc(N[C@@H](C)c3ccc(F)cc3)c(C#N)cc2F)[nH]n1` [AZ 960] the value was 4.4 °C; for `Cc1cc(Nc2nc(N[C@@H](C)c3ncc(F)cn3)ncc2Cl)n[nH]1` [AZD1480], 3.8 °C.
Turning to `COc1cc(N2CCC(N)CC2)ccc1Nc1ncc(Cl)c(-c2c[nH]c3ccccc23)n1` [AZD3463], the “ΔTm (°C) CAMKK1” value (DSF, 1 μM CAMKK1-KD, compound 10 µM, mean and standard error from triplicate measurements) is 11.5 ± 0.3 °C.
As to `Cc1ncc(-c2ccnc(Nc3ccc(S(C)(=O)=O)cc3)n2)n1C(C)C` [AZD5438], the ΔTm at 10 µM under setting [2] was 3.4 °C.
Same read-out and setting: as for `NC(=O)Nc1cc(-c2cccc(F)c2)sc1C(=O)N[C@H]1CCCNC1` [AZD7762], the figure is 3.6 °C.
Same read-out and setting: for `C=CC(=O)Nc1cc(Nc2nccc(-c3cn(C)c4ccccc34)n2)c(OC)cc1N(C)CCN(C)C` [AZD9291] the value was 2.6 °C.
Consider `CN(C)C/C=C/C(=O)Nc1cc2c(Nc3ccc(F)c(Cl)c3)ncnc2cc1O[C@H]1CCOC1` [Afatinib (BIBW2992), Afatinib], for which, under setting [2], the thermal shift (ΔTm) at 10 µM was determined as 3.4 °C.
On to `CC(C)CCN1c2nc(Nc3cc(F)c(O)c(F)c3)ncc2N(C)C(=O)C1C` (centres unmarked) [BI-D1870], for which, under setting [1], the “Mean ΔTm (°C)” value was determined as 3.6 °C.
Still for that read-out and setting: for `O=C1Nc2cc(Br)ccc2/C1=C1/Nc2ccccc2/C1=N\O` [BIO] the value was 2.9 °C; for `Cc1cc(N2CCOCC2)cc2[nH]c(-c3c(NC[C@@H](O)c4cccc(Cl)c4)cc[nH]c3=O)nc12` [BMS-536924], 3.6 °C.
In the case of `CCOc1ccn(-c2ccc(F)cc2)c(=O)c1C(=O)Nc1ccc(Oc2ccnc(N)c2Cl)c(F)c1` [BMS-777607], the ΔTm at 10 µM (read-out: ΔTm (°C) CAMKK1) was 7.5 ± 0.3 °C.
On to `Nc1nccc(Oc2ccc(NC(=O)c3c[nH]cc(-c4ccc(F)cc4)c3=O)cc2F)c1Cl` [BMS-794833], for which the ΔTm at 10 µM under setting [2] was 4.9 °C.
Still for that read-out and setting: for `O=C(NCCCNc1nc(Nc2cccc(NC(=O)N3CCCC3)c2)ncc1I)c1cccs1` [BX-795] the value was 5.6 °C.
For `O=C(Nc1cccc(Nc2ncc(Br)c(NCCc3cnc[nH]3)n2)c1)N1CCCC1` [BX-912], the “Mean ΔTm (°C)” value under setting [1] was found to be 4.3 °C.
Same read-out and setting: for `O=c1[nH]c2ccc(Cl)cc2c(N[C@@H]2CN3CCC2CC3)c1-c1nc2ccccc2[nH]1` [CHIR-124] the value was 5.5 °C; for `C=CC(=O)Nc1cccc(Nc2nc(Nc3ccc(NC4CN(CCF)C4)cc3OC)ncc2C(F)(F)F)c1` [CNX-2006], 4.4 °C.
Turning to `C=CC(=O)Nc1cccc(Nc2nc(Nc3ccc(N4CCN(C(C)=O)CC4)cc3OC)ncc2C(F)(F)F)c1` [CO-1686 (AVL-301)], the ΔTm at 10 µM under setting [2] stood at 3.4 °C.
On the same count and under the same terms, as for `Cc1nc(N)sc1-c1ccnc(Nc2ccc(N3CCOCC3)cc2)n1` [CYC116], the figure is 2.7 °C; as for `N#CCNC(=O)c1ccc(-c2ccnc(Nc3ccc(N4CCOCC4)cc3)n2)cc1` [CYT387], 4.7 °C.
For the compound `COc1cc2nccc(Oc3ccc(NC(=O)C4(C(=O)Nc5ccc(F)cc5)CC4)cc3)c2cc1OC` [Cabozantinib (XL184), Cabozantinib], the “Mean ΔTm (°C)” value under setting [1] was 5.0 °C.
As to `COc1cc2nccc(Oc3ccc(NC(=O)C4(C(=O)Nc5ccc(F)cc5)CC4)cc3)c2cc1OC` [Cabozantinib malate (XL184), Cabozantinib malate], under setting [2], the shift in melting temperature (ΔTm) at 10 µM amounted to 5.2 °C.
For the compound `CO[C@@H](C(=O)N1Cc2n[nH]c(NC(=O)c3ccc(N4CCN(C)CC4)cc3)c2C1)c1ccccc1` [Danusertib (PHA-739358), Danusertib], the thermal shift (ΔTm) at 10 µM under setting [2] came out at 3.8 °C.
`CN1CCN(c2ccc3nc(-c4c(N)c5c(F)cccc5[nH]c4=O)[nH]c3c2)CC1` [Dovitinib (TKI-258), Dovitinib]: under setting [1], the “Mean ΔTm (°C)” value came out at 3.1 °C.
As to `Cc1cc(Nc2cc(N3CCN(C)CC3)nc(/C=C/c3ccccc3)n2)n[nH]1` [ENMD-2076], the ΔTm at 10 µM under setting [2] came out at 2.6 °C.
As to `CN(C)CCCn1cc(C2=C(c3c[nH]c4ccccc34)C(=O)NC2=O)c2ccccc21` [GF109203X], the “Mean ΔTm (°C)” value under setting [1] worked out at 2.4 °C.
Same read-out and setting: for `O=C1Nc2ccc(I)cc2/C1=C/c1cc(Br)c(O)c(Br)c1` [GW5074] the value was 5.4 °C.
Take `CN1CCN(C2CCN(C(=O)Nc3cc(Oc4ccc(NC(=O)C5(C(=O)Nc6ccc(F)cc6)CC5)c(F)c4)ccn3)CC2)CC1` [Golvatinib (E7050), Golvatinib]: the ΔTm at 10 µM under setting [2] amounted to 5.5 °C.
Still for that read-out and setting: as for `Nc1nc(Nc2ccc(S(N)(=O)=O)cc2)nn1C(=O)c1c(F)cccc1F` [JNJ-7706621], the figure is 3.6 °C.
In the case of `COc1cc2nccc(Oc3ccc(NC(=O)Nc4ccc(F)cc4F)c(F)c3)c2cc1OC` [Ki8751], the “Mean ΔTm (°C)” value under setting [1] was found to be 2.1 °C.
For `COc1ccccc1-c1cc(Nc2cccc(CS(N)(=O)=O)c2)ncn1` [LDC000067], under setting [1], the “Mean ΔTm (°C)” value amounted to 4.2 °C.
Take `Cc1cc(Nc2ncc(Cl)c(Nc3ccccc3S(=O)(=O)C(C)C)n2)c(OC(C)C)cc1C1CCNCC1` [LDK378]: the ΔTm at 10 µM under setting [2] stood at 3.9 °C.
Regarding `Cc1cc(Nc2cc(CN3CCOCC3)c3nc(C)c(Cc4ccc(Cl)cc4F)n3n2)n[nH]1` [LY2784544], under setting [2], the thermal shift (ΔTm) at 10 µM worked out at 4.6 °C.
Same read-out and setting: as for `CCN1CCN(Cc2ccc(Nc3ncc(F)c(-c4cc(F)c5nc(C)n(C(C)C)c5c4)n3)nc2)CC1` [LY2835219], the figure is 6.7 °C.
Turning to `O=C(c1cccc(Cl)c1F)N1CCN(Cc2cccc(Nc3nccs3)n2)CC1` [MK-8745], the “Mean ΔTm (°C)” value under setting [1] amounted to 2.0 °C.
On to `CNC(=O)c1nn(C)c2c1C(C)(C)Cc1cnc(Nc3ccc(N4CCN(C)CC4)cc3)nc1-2` [Milciclib (PHA-848125), Milciclib], for which, under setting [2], the ΔTm at 10 µM is 4.1 °C.
As to `CN(c1ncccc1CNc1nc(Nc2ccc3c(c2)CC(=O)N3)ncc1C(F)(F)F)S(C)(=O)=O` [PF-00562271], the “Mean ΔTm (°C)” value under setting [1] turned out to be 5.2 °C.
In the case of `CN(c1ncccc1CNc1nc(Nc2ccc3c(c2)CC(=O)N3)ncc1C(F)(F)F)S(C)(=O)=O` [PF-562271], the “Mean ΔTm (°C)” value under setting [1] came out at 5.6 °C.
Still for that read-out and setting: for `CS(=O)(=O)c1cccc(CNc2nc(Nc3ccc4c(c3)CCC(=O)N4)ncc2C(F)(F)F)c1` [PF-573228] the value was 5.8 °C.
As to `Cc1nc(Nc2[nH]nc3c2CN(C(=O)N[C@H](CN(C)C)c2ccccc2)C3(C)C)c2sccc2n1` [PF-3758309], the ΔTm at 10 µM under setting [2] was found to be 4.6 °C.
Still for that read-out and setting: for `Cc1[nH]c(/C=C2\C(=O)Nc3ccc(S(=O)(=O)Cc4c(Cl)cccc4Cl)cc32)c(C)c1C(=O)N1CCC[C@@H]1CN1CCCC1` [PHA-665752] the value was 5.2 °C.
Take `O=C1NCCc2[nH]c(-c3ccncc3)cc21` [PHA-767491]: the “Mean ΔTm (°C)” value under setting [1] stood at 3.0 °C.
Regarding `CC(C)CC(=O)Nc1[nH]nc2c1CN(C(=O)C1CCN(C)CC1)C2(C)C` [PHA-793887], the ΔTm at 10 µM under setting [2] was 3 °C.
In the case of `NC(=O)c1cnc(N[C@@H]2CCCC[C@@H]2N)nc1Nc1cccc(-n2nccn2)c1` [PRT062607 (P505-15)], under setting [1], the “Mean ΔTm (°C)” value was found to be 4.1 °C.
On to `C1=C/COCc2cc(ccc2OCCN2CCCC2)Nc2nccc(n2)-c2cccc(c2)COC/1` [Pacritinib (SB1518), Pacritinib], for which the ΔTm at 10 µM (DSF, 1 μM CAMKK1-KD, compound 10 µM, mean and standard error from triplicate measurements, read-out: ΔTm (°C) CAMKK1) stood at 5.7 ± 1.2 °C.
As for `CC(=O)c1c(C)c2cnc(Nc3ccc(N4CCNCC4)cn3)nc2n(C2CCCC2)c1=O` [Palbociclib (PD-0332991) HCl, Palbociclib], the ΔTm at 10 µM (read-out: Mean ΔTm (°C)) was 4.4 °C.
In the case of `CCOc1cc2ncc(C#N)c(Nc3ccc(F)c(Cl)c3)c2cc1NC(=O)/C=C/CN(C)C` [Pelitinib (EKB-569), Pelitinib], the ΔTm at 10 µM under setting [2] turned out to be 3.2 °C.
In the case of `Cc1ccc(C(=O)Nc2ccc(CN3CCN(C)CC3)c(C(F)(F)F)c2)cc1C#Cc1cnc2cccnn12` [Ponatinib (AP24534), Ponatinib], under “read-out: ΔTm (°C) CAMKK1”, the ΔTm at 10 µM was determined as 4.4 ± 3.1 °C.
Regarding `O=c1c(O)c(-c2ccc(O)c(O)c2)oc2cc(O)cc(O)c12` [Quercetin], under setting [2], the shift in melting temperature (ΔTm) at 10 µM came out at 4.9 °C.
As for `O=C(NCc1cccc(O)c1)Nc1nc(-c2ccncc2)cs1` [RKI-1447], the “Mean ΔTm (°C)” value under setting [1] turned out to be 5.6 °C.
Still for that read-out and setting: for `COc1cc(C(=O)NC2CCN(C)CC2)ccc1Nc1ncc2c(n1)N(C1CCCC1)CC(F)(F)C(=O)N2C` [Ro3280] the value was 4.8 °C.
Still for that read-out and setting: for `CS(=O)(=O)O.Cn1cc(C2=C(c3cn(CCCSC(=N)N)c4ccccc34)C(=O)NC2=O)c2ccccc21` [Ro 31-8220 Mesylate] the value was 3.4 °C; for `O=C1NC(=O)C(c2ccccc2[N+](=O)[O-])=C1Nc1ccc(O)c(Cl)c1` [SB415286], 2.7 °C; for `CN1CCC(CNc2ccc3ncc(-c4cccc(OC(F)(F)F)c4)n3n2)CC1` [SGI-1776 free base], 3.4 °C.
In the case of `O=C(Nc1cccc(Cl)c1)Nc1ncc(CCNc2ncnc3ccsc23)s1` [SNS-314 Mesylate], the ΔTm at 10 µM (read-out: Mean ΔTm (°C)) turned out to be 4.5 °C.
On to `CN[C@@H]1C[C@H]2O[C@@](C)([C@@H]1OC)n1c3ccccc3c3c4c(c5c6ccccc6n2c5c31)C(=O)NC4` [Staurosporine], for which the ΔTm at 10 µM (read-out: ΔTm (°C) CAMKK1) amounted to 23.7 ± 1.9 °C.
Turning to `CNC(=O)c1ccccc1Nc1nc(Nc2ccc(N3CCOCC3)cc2OC)ncc1Cl` [TAE226 (NVP-TAE226)], under setting [1], the “Mean ΔTm (°C)” value came out at 3.0 °C.
As to `CCS(=O)(=O)c1cccc(-c2cc(C(=O)NC3CCN(C)CC3)c(C)c3[nH]c4ncc(C)cc4c23)c1` [TAK-901], under setting [2], the ΔTm at 10 µM was 5 °C.
As for `Cc1cnc(Nc2ccc(N3CCN(C)CC3)cc2)nc1Nc1cccc(S(=O)(=O)NC(C)(C)C)c1` [TG101209], under setting [1], the “Mean ΔTm (°C)” value turned out to be 3.6 °C.
